Laboratory results from paper PMC8972196, “A Set of Experimentally Validated Decoys for the Human CC Chemokine Receptor 7 (CCR7) Obtained by Virtual Screening” (Frontiers in Pharmacology, 2022).
Read-outs that look alike come from different tables or passages of the source.

Biological target: T1, human CCR7 (Homo sapiens, UniProt P32248)
T1 construct: expressed in transfected cells
T1 sequence (P32248 25-378): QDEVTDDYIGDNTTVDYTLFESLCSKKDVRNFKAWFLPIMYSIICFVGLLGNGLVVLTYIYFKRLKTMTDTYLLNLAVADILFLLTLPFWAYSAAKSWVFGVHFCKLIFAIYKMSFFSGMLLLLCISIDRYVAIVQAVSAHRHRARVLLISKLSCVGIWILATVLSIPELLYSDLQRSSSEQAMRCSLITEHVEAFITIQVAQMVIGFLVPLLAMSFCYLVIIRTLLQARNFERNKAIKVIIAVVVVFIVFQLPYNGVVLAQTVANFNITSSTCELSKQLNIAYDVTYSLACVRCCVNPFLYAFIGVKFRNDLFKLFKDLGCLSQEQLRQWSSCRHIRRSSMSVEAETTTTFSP
Test: CCL19-induced calcium mobilization assay, U87.CD4 cells expressing CCR7
Assay type: cell-based
Settings: for IC50: read-out: IC50 [μM] block CCL19 induced calcium signaling
Description: U87.CD4 cells that stably express either human CCR7, CXCR2, CCR5 or CXCR4 were seeded (20,000 cells/well) in gelatin-coated black-walled polystyrene 96-well plates with clear bottom and incubated overnight at 37°C and 5% CO2. […] Culture medium was removed, and cells were incubated for 45 min at room temperature in the dark. […] Exactly the same protocol was used to record calcium responses in Chinese hamster ovary (CHO)-K1 cells, upon stimulation with adenosine triphosphate (ATP, purchased from Sigma).

[1] = CCL19-induced calcium signaling
[2] = classification of tested compounds as decoy or active
[3] = CCL19 induced calcium signaling
[4] = classification as decoy or active on CCR7

Structure (SMILES)	IC50 [1] [µM]	Decoy – 0 Active – 1 [2]	IC50 [3] [µM]	Decoy – 0 Active – 1 [4]
COC(=O)c1ccc([C@H]2CC(=O)Nc3c2cnn3Cc2ccco2)cc1 [C158, COC(=O)c1ccc([C@H]2CC(=O)Nc3c2cnn3Cc2ccco2)cc1]	> 50	0	–	–
Cc1ccc(S(=O)(=O)N(CC(=O)Nc2cccc([N+](=O)[O-])c2)Cc2ccc(F)cc2)cc1 [C236, Cc1ccc(cc1)S(=O)(=O)N(Cc2ccc(cc2)F)CC(=O)Nc3cccc(c3)[N+](=O)[O-]]	–	–	> 50	0
Cc1ccc(S(=O)(=O)N(CCC(=O)NC(C)CO)c2ccccc2)cc1 (stereo not drawn) [C250, Cc1ccc(cc1)S(=O)(=O)N(CCC(=O)NC(C)CO)c2ccccc2]	–	–	> 50	0
FC(F)(F)c1cc(CNC(=S)NCc2ccccc2)cc(C(F)(F)F)c1 [C050, S=C(NCC1=CC=CC=C1)NCC2=CC(C(F)(F)F)=CC(C(F)(F)F)=C2]	> 50	0	–	–
CCOC(=O)NC(=S)Nc1ccccn1 [C047, S=C(NC1=NC=CC=C1)NC(OCC)=O]	> 30	0	–	–
CC1(O)CN(C(=O)c2cc3c(Br)cccc3[nH]2)C1 [C175, CC1(O)CN(C(=O)c2cc3c(Br)cccc3[nH]2)C1]	–	–	> 50	0
Cn1ccnc1[C@H](NC1=NS(=O)(=O)c2ccccc21)c1cccc(F)c1 [C153, Cn1ccnc1[C@H](NC1=NS(=O)(=O)c2ccccc21)c1cccc(F)c1]	> 50	0	–	–
Cc1ocnc1C(=O)N[C@@H]1CC(=O)N(Cc2ccc(F)cc2)C1 [C139, Cc1ocnc1C(=O)N[C@@H]1CC(=O)N(Cc2ccc(F)cc2)C1]	> 50	0	–	–
CC(O)c1ccc(S(=O)(=O)NC(c2ccccc2)c2nccn2C)cc1 (stereo not drawn) [C247, CC(c1ccc(cc1)S(=O)(=O)NC(c2ccccc2)c3nccn3C)O]	–	–	> 50	0
Cc1ccc(S(=O)(=O)N(C)c2ccccc2C(=O)NCc2ccco2)cc1 [C240, Cc1ccc(cc1)S(=O)(=O)N(C)c2ccccc2C(=O)NCc3ccco3]	–	–	> 50	0
Cc1cccnc1C1(CNc2cc(N3CCC[C@H](CO)C3)ncn2)CC1 [C080, Cc1cccnc1C1(CNc2cc(N3CCC[C@H](CO)C3)ncn2)CC1]	> 50	0	–	–
O=C(NCC(C1CC1)C1CC1)N1CCC(O)(C(F)(F)F)CC1 [C166, O=C(NCC(C1CC1)C1CC1)N1CCC(O)(C(F)(F)F)CC1]	–	–	> 50	0
Cc1ccccc1NC(=O)c1c(O)nc2ccccc2c1O [C170, Cc1ccccc1NC(=O)c1c(O)nc2ccccc2c1O]	–	–	> 50	0
O=C1NCCN1CCNC(=S)Nc1cc(C(F)(F)F)cc(C(F)(F)F)c1 [C034, FC(F)(F)c1cc(NC(=S)NCCN2CCNC2=O)cc(c1)C(F)(F)F]	> 30	0	–	–
CN(C)CC(C)(C)CNC(=O)C(=O)Nc1cccc(C(=O)N(C)C)c1 [C070, CN(C)C(=O)c1cccc(NC(=O)C(=O)NCC(C)(C)C[NH+](C)C)c1]	> 10	0	–	–
O=C(c1ccnc(N[C@H]2CCCN(Cc3cccnc3)C2)c1)N1CCCC1 [C087, O=C(c1ccnc(N[C@H]2CCC[N@@H+](Cc3cccnc3)C2)c1)N1CCCC1]	> 50	0	–	–
COc1cccc(N(CC(=O)Nc2cccc([N+](=O)[O-])c2)S(=O)(=O)c2ccc(C)cc2)c1 [C255, Cc1ccc(cc1)S(=O)(=O)N(CC(=O)Nc2cccc(c2)[N+](=O)[O-])c3cccc(c3)OC]	–	–	> 50	0
O=C1NC[C@H](C(=O)N(Cc2ccco2)C2CC2)N1 [C151, O=C1NC[C@H](C(=O)N(Cc2ccco2)C2CC2)N1]	> 50	0	–	–
CCN(CC)S(=O)(=O)c1ccc2c(c1)cc(C(=O)NCc1ccc(C)o1)n2C [C102, CCN(CC)S(=O)(=O)c1ccc2c(c1)cc(C(=O)NCc1ccc(C)o1)n2C]	> 50	0	–	–
CCOC(=O)NC(=S)Nc1cc(C)nc(C)n1 [C046, CC1=NC(NC(NC(OCC)=O)=S)=CC(C)=N1]	> 30	0	–	–
CC1(C)CC(NC(=O)c2cc(O)c3ccccc3c2)C(C)(C)O1 (stereo not drawn) [C178, CC1(C)CC(NC(=O)c2cc(O)c3ccccc3c2)C(C)(C)O1]	–	–	> 50	0
CC1CN(C(=O)c2cc3c(OC(F)(F)F)cccc3[nH]2)CC(=O)N1 (stereo not drawn) [C176, CC1CN(C(=O)c2cc3c(OC(F)(F)F)cccc3[nH]2)CC(=O)N1]	–	–	> 50	0
COC(=O)c1ccccc1Nc1c(NCc2ccc(OC)cc2)c(=O)c1=O [C011, COC(=O)c1ccccc1Nc1c(NCc2ccc(OC)cc2)c(=O)c1=O]	> 50	0	–	–

Structure (SMILES)	IC50 [1] [µM]	Decoy – 0 Active – 1 [2]	IC50 [3] [µM]	Decoy – 0 Active – 1 [4]
O=C1CCC(C(=O)N2CCCC2c2ccc3c(c2)OCO3)N1 (stereo not drawn) [C231, O=C1CCC(C(=O)N2CCCC2c2ccc3c(c2)OCO3)N1]	–	–	> 50	0
CN(Cc1ccccc1N[C@H]1CCN(C)C1=O)C(=O)c1cccs1 [C124, CN(Cc1ccccc1N[C@H]1CCN(C)C1=O)C(=O)c1cccs1]	> 50	0	–	–
O=C1CC(NCc2nc3ccccc3[nH]2)CN1Cc1ccccc1C(F)(F)F (stereo not drawn) [C277, O=C1CC(NCc2nc3ccccc3[nH]2)CN1Cc1ccccc1C(F)(F)F]	–	–	> 50	0
COc1cccc(-c2cc(C(=O)NCc3ccco3)no2)c1 [C094, COc1cccc(-c2cc(C(=O)NCc3ccco3)no2)c1]	> 50	0	–	–
O=C1CC(C(=O)N2CCCC2c2ccccc2)CN1Cc1cccnc1 (stereo not drawn) [C228, O=C1CC(C(=O)N2CCCC2c2ccccc2)CN1Cc1cccnc1]	–	–	> 50	0
O=C1CC(NC(=O)N2CCCC2c2ccccc2)CN1c1ccccc1 (stereo not drawn) [C198, O=C1CC(NC(=O)N2CCCC2c2ccccc2)CN1c1ccccc1]	–	–	> 50	0
CN(Cc1ccccc1Cl)C(C(=O)O)c1ccc(F)c(CO)c1 (stereo not drawn) [C171, C[NH+](Cc1ccccc1Cl)C(C(=O)[O-])c1ccc(F)c(CO)c1]	–	–	> 50	0
CN1CCN(C(=O)c2ccc(CN(c3ccccc3)S(=O)(=O)c3ccccc3)cc2)CC1 [C234, C[NH+]1CCN(CC1)C(=O)c2ccc(cc2)CN(c3ccccc3)S(=O)(=O)c4ccccc4]	–	–	> 50	0
O=C(O)c1nc[nH]c1C(=O)NC(c1ccccc1)c1ccco1 (stereo not drawn) [C190, O=C([O-])c1nc[nH]c1C(=O)NC(c1ccccc1)c1ccco1]	–	–	> 50	0
Cc1cccc(C2(C(=O)NC3CCC(=O)N(C)C3)CCCC2)c1 (stereo not drawn) [C220, Cc1cccc(C2(C(=O)NC3CCC(=O)N(C)C3)CCCC2)c1]	–	–	> 50	0
C[C@H](Nc1c(N[C@H]2C[C@H]3CC[C@@]2(CN2CCCC2)C3(C)C)c(=O)c1=O)c1cccc2ccccc12 [C022, CC1(C)[C@@H]2CC[C@]1(CN3CCCC3)[C@@H](NC(C4=O)=C(N[C@H](C5=CC=CC6=C5C=CC=C6)C)C4=O)C2]	> 50	0	–	–
Cc1nccn1-c1ccccc1CNC(=O)CC1NC(=O)c2ccccc21 (stereo not drawn) [C223, Cc1nccn1-c1ccccc1CNC(=O)CC1NC(=O)c2ccccc21]	–	–	> 50	0
O=S1(=O)C[C@H](Nc2ccc(Cl)cc2)[C@H](NCc2ccccc2)C1 [C122, O=S1(=O)C[C@@H](NCc2ccccc2)[C@@H](Nc2ccc(Cl)cc2)C1]	> 50	0	–	–
O=C(CCC1(C(=O)O)CCC(=O)NC1)NCc1ccccc1 (stereo not drawn) [C216, O=C(CCC1(C(=O)[O-])CCC(=O)NC1)NCc1ccccc1]	–	–	> 50	0
COc1ccc(C)cc1NC(=S)N1CCN(c2ccccc2O)CC1 [C026, COc1ccc(C)cc1NC(=S)N1CCN(CC1)c1ccccc1O]	> 30	0	–	–
O=C(O)CN1C(=O)NC2(CCCc3ccccc32)C1=O (stereo not drawn) [C199, O=C([O-])CN1C(=O)NC2(CCCc3ccccc32)C1=O]	–	–	> 50	0
O=C1CC(C(=O)N2CCCC2c2cccs2)CN1c1cccc2ccccc12 (stereo not drawn) [C230, O=C1CC(C(=O)N2CCCC2c2cccs2)CN1c1cccc2ccccc12]	–	–	> 50	0
Cc1cccc(C)c1NC(=O)c1cc(S(N)(=O)=O)c(Cl)cc1O [C179, Cc1cccc(C)c1NC(=O)c1cc(S(N)(=O)=O)c(Cl)cc1O]	–	–	> 50	0
C[C@@H](CNC(=O)N[C@H]1CCC[C@@H](S(C)(=O)=O)C1)c1cccs1 [C118, C[C@@H](CNC(=O)N[C@H]1CCC[C@@H](S(C)(=O)=O)C1)c1cccs1]	> 50	0	–	–
CN(C)[C@H]1CCCC[C@@H]1Nc1c(NCc2cc(C(F)(F)F)cc(C(F)(F)F)c2)c(=O)c1=O [C020, O=C1C(N[C@H]2CCCC[C@@H]2N(C)C)=C(NCC3=CC(C(F)(F)F)=CC(C(F)(F)F)=C3)C1=O]	> 50	0	–	–
Cc1cccc(-c2cccc(C(=O)N3CC(O)CC3C(=O)O)c2)c1 (stereo not drawn) [C187, Cc1cccc(-c2cccc(C(=O)N3CC(O)CC3C(=O)[O-])c2)c1]	–	–	> 50	0
Cc1ccc(NC=C2C(=O)CC(c3ccco3)CC2=O)cc1 (stereo not drawn) [C071, Cc1ccc(NC=C2C(=O)CC(c3ccco3)CC2=O)cc1]	> 10	0	–	–
